What was measured:
[1] = target: CAMK2A (Homo sapiens, UniProt Q9UQM7); assay: ProQinase radiometric kinase panel; conditions: mean of 2 exp.
[2] = target: CAMK4 (Homo sapiens, UniProt Q16566); assay: ProQinase radiometric kinase panel; conditions: mean of 2 exp.
[3] = target: ALK (Homo sapiens, UniProt Q9UM73); assay: ProQinase radiometric kinase panel; conditions: mean of 2 exp.
[4] = target: ITK (Homo sapiens, UniProt Q08881); assay: ProQinase radiometric kinase panel; conditions: mean of 2 exp.
Sequence of ITK (Q08881 whole entry): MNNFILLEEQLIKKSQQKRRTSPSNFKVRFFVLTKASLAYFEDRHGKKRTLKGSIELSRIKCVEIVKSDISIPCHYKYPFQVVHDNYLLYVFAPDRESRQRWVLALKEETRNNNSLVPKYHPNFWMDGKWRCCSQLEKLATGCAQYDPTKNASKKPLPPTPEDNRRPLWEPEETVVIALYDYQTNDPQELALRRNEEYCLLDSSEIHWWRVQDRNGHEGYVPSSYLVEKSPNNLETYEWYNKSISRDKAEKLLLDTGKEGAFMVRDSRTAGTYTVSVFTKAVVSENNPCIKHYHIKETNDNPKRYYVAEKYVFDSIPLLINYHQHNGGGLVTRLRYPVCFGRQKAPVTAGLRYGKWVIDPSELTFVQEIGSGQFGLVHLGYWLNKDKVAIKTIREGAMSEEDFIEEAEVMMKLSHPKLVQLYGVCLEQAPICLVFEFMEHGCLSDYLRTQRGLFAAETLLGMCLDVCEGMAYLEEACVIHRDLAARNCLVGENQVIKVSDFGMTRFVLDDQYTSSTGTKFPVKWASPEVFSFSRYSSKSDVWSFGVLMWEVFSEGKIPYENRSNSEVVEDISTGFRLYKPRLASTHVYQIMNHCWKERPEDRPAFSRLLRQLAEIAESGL

[5] = target: RPS6KA1 (Homo sapiens, UniProt Q15418); assay: ProQinase radiometric kinase panel; conditions: mean of 2 exp.
[6] = target: PYK2 (Homo sapiens, UniProt Q14289); assay: ProQinase radiometric kinase panel; conditions: mean of 2 exp.
[7] = target: CAMK2D (Homo sapiens, UniProt Q13557); assay: ProQinase radiometric kinase panel; conditions: mean of 2 exp.
[8] = target: MEK1 (Homo sapiens, UniProt Q02750); assay: ProQinase radiometric kinase panel; conditions: mean of 2 exp.
[9] = target: NIK (Homo sapiens, UniProt Q99558); assay: ProQinase radiometric kinase panel; conditions: mean of 2 exp.
Sequence of NIK (Q99558 whole entry): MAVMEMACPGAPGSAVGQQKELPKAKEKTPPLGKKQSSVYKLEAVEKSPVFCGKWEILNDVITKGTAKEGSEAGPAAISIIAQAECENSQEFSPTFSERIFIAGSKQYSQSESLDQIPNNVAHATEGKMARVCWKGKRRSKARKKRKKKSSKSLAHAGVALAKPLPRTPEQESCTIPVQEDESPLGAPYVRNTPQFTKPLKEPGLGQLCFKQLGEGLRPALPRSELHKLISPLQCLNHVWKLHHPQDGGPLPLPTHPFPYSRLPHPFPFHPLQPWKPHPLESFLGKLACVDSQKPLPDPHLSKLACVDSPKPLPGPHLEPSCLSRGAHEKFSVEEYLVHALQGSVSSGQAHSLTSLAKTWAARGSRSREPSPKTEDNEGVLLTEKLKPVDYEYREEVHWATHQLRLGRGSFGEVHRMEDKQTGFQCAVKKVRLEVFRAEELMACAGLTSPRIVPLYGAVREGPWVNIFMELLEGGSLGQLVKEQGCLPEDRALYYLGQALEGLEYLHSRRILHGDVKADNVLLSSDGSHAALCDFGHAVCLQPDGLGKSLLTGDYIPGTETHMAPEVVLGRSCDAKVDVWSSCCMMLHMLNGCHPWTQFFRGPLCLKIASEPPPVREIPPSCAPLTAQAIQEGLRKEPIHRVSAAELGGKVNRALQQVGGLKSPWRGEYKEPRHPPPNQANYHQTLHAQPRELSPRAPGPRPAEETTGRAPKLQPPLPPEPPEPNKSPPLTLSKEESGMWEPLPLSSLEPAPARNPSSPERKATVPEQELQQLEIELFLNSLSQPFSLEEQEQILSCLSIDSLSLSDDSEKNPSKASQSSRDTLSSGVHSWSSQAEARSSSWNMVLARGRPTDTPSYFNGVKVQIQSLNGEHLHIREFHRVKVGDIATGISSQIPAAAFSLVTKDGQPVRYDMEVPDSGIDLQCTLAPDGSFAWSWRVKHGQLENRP

[10] = target: RPS6KA5 (Homo sapiens, UniProt O75582); assay: ProQinase radiometric kinase panel; conditions: mean of 2 exp.
[11] = target: FGF-R3 (Homo sapiens, UniProt P22607); assay: ProQinase radiometric kinase panel; conditions: mean of 2 exp.
[12] = target: Aurora-C (Homo sapiens, UniProt Q9UQB9); assay: ProQinase radiometric kinase panel; conditions: mean of 2 exp.
[13] = target: BTK (Homo sapiens, UniProt Q06187); assay: ProQinase radiometric kinase panel; conditions: mean of 2 exp.
[14] = target: SRMS (Homo sapiens, UniProt Q9H3Y6); assay: ProQinase radiometric kinase panel; conditions: mean of 2 exp.
[15] = target: SNF1LK2 (Homo sapiens, UniProt Q9H0K1); assay: ProQinase radiometric kinase panel; conditions: mean of 2 exp.
[16] = target: PKC-theta (Homo sapiens, UniProt Q04759); assay: ProQinase radiometric kinase panel; conditions: mean of 2 exp.
[17] = target: MST2 (Homo sapiens, UniProt Q13188); assay: ProQinase radiometric kinase panel; conditions: mean of 2 exp.
[18] = target: EPHA5 (Homo sapiens, UniProt P54756); assay: ProQinase radiometric kinase panel; conditions: mean of 2 exp.
[19] = target: CDK1/CycE1 (Homo sapiens, UniProt P06493); assay: ProQinase radiometric kinase panel; conditions: mean of 2 exp.
[20] = target: TRK-A (Homo sapiens, UniProt P04629); assay: ProQinase radiometric kinase panel; conditions: mean of 2 exp.
[21] = target: EEF2K (Homo sapiens, UniProt O00418); assay: ProQinase radiometric kinase panel; conditions: mean of 2 exp.
[22] = target: IGF1-R (Homo sapiens, UniProt P08069); assay: ProQinase radiometric kinase panel; conditions: mean of 2 exp.
[23] = target: MAPKAPK3 (Homo sapiens, UniProt Q16644); assay: ProQinase radiometric kinase panel; conditions: mean of 2 exp.
[24] = target: WNK1 (Homo sapiens, UniProt Q9H4A3); assay: ProQinase radiometric kinase panel; conditions: mean of 2 exp.
[25] = target: p38-alpha (Homo sapiens, UniProt Q16539); assay: ProQinase radiometric kinase panel; conditions: mean of 2 exp.
Sequence of p38-alpha (Q16539 whole entry): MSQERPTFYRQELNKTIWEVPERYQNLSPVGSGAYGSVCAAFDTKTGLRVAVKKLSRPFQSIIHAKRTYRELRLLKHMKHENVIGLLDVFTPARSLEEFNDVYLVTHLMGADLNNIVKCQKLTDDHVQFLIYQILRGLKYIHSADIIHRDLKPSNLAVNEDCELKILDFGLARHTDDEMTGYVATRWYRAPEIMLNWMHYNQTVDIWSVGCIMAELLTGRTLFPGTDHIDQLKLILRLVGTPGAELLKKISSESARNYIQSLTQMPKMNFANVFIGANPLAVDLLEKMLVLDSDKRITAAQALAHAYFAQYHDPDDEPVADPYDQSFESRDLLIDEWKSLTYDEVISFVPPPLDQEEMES

[26] = target: PKC-beta2 (Homo sapiens, UniProt P05771); assay: ProQinase radiometric kinase panel; conditions: mean of 2 exp.
Sequence of PKC-beta2 (P05771 1-673 isoform P05771-2): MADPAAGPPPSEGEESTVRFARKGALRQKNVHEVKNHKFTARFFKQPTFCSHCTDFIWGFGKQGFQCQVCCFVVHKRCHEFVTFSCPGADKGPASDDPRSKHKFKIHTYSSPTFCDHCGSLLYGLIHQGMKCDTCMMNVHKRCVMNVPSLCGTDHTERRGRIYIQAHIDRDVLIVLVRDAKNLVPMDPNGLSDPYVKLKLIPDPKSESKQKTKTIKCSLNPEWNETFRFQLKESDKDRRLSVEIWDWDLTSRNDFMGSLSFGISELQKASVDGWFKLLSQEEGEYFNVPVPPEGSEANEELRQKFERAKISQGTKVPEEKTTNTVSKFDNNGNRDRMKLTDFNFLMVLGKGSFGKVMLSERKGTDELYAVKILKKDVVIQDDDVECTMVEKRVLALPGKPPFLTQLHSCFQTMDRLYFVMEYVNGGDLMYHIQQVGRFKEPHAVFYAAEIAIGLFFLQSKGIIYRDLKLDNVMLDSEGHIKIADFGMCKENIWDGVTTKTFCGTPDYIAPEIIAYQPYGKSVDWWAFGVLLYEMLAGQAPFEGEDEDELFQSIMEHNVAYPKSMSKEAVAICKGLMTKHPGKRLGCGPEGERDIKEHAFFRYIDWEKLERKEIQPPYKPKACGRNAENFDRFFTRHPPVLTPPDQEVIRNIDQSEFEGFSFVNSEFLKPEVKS

[27] = target: STK39 (Homo sapiens, UniProt Q9UEW8); assay: ProQinase radiometric kinase panel; conditions: mean of 2 exp.
[28] = target: CDK8/CycC (Homo sapiens, UniProt P49336); assay: ProQinase radiometric kinase panel; conditions: mean of 2 exp.
[29] = target: IRAK4 (Homo sapiens, UniProt Q9NWZ3); assay: ProQinase radiometric kinase panel; conditions: mean of 2 exp.
[30] = system: PC12 cells; assay: Cell viability XTT assay; assay type: cell-based; conditions: PC12, up to 10 μM, 3 days
[31] = Cell viability XTT assay; assay type: cell-based; conditions: rat, PC12 cells, read-out: Viability of treated cells relative to untreated control
[32] = target: JAK2 (Homo sapiens, UniProt O60674); assay: ProQinase radiometric kinase panel; conditions: mean of 2 exp.
[33] = target: PKC-iota (Homo sapiens, UniProt P41743); assay: ProQinase radiometric kinase panel; conditions: mean of 2 exp.
[34] = target: MET (Homo sapiens, UniProt P08581); assay: ProQinase radiometric kinase panel; conditions: mean of 2 exp.
[35] = target: LTK (Homo sapiens, UniProt P29376); assay: ProQinase radiometric kinase panel; conditions: mean of 2 exp.
Sequence of LTK (P29376 17-864): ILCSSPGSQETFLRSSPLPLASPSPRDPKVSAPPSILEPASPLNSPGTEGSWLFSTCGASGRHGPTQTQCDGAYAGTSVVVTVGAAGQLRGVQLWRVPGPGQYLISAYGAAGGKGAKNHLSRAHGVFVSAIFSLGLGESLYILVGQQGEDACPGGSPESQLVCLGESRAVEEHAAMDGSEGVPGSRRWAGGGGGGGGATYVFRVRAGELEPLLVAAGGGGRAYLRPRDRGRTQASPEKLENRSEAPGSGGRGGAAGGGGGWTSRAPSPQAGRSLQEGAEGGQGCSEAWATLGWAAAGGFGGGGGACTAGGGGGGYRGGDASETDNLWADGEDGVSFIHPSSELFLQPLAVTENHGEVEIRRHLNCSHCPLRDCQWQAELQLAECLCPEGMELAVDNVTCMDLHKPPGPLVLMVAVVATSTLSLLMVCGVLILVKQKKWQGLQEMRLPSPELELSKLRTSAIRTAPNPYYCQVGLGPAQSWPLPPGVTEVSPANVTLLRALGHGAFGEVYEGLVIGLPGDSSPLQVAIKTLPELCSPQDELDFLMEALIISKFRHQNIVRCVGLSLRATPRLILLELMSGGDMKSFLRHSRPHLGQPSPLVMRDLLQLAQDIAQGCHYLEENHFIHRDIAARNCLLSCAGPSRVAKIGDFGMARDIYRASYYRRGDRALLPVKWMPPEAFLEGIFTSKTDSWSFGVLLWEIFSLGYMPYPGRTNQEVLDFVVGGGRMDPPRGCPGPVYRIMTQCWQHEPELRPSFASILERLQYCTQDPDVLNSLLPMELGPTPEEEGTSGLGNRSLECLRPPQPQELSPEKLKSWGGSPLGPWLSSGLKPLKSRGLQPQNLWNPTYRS

[36] = target: AKT2 (Homo sapiens, UniProt P31751); assay: ProQinase radiometric kinase panel; conditions: mean of 2 exp.
[37] = target: ACV-R1B (Homo sapiens, UniProt P36896); assay: ProQinase radiometric kinase panel; conditions: mean of 2 exp.
[38] = target: PKC-mu (Homo sapiens, UniProt Q15139); assay: ProQinase radiometric kinase panel; conditions: mean of 2 exp.
[39] = target: TEC (Homo sapiens, UniProt P42680); assay: ProQinase radiometric kinase panel; conditions: mean of 2 exp.

Sequence of ALK (Q9UM73 19-1620): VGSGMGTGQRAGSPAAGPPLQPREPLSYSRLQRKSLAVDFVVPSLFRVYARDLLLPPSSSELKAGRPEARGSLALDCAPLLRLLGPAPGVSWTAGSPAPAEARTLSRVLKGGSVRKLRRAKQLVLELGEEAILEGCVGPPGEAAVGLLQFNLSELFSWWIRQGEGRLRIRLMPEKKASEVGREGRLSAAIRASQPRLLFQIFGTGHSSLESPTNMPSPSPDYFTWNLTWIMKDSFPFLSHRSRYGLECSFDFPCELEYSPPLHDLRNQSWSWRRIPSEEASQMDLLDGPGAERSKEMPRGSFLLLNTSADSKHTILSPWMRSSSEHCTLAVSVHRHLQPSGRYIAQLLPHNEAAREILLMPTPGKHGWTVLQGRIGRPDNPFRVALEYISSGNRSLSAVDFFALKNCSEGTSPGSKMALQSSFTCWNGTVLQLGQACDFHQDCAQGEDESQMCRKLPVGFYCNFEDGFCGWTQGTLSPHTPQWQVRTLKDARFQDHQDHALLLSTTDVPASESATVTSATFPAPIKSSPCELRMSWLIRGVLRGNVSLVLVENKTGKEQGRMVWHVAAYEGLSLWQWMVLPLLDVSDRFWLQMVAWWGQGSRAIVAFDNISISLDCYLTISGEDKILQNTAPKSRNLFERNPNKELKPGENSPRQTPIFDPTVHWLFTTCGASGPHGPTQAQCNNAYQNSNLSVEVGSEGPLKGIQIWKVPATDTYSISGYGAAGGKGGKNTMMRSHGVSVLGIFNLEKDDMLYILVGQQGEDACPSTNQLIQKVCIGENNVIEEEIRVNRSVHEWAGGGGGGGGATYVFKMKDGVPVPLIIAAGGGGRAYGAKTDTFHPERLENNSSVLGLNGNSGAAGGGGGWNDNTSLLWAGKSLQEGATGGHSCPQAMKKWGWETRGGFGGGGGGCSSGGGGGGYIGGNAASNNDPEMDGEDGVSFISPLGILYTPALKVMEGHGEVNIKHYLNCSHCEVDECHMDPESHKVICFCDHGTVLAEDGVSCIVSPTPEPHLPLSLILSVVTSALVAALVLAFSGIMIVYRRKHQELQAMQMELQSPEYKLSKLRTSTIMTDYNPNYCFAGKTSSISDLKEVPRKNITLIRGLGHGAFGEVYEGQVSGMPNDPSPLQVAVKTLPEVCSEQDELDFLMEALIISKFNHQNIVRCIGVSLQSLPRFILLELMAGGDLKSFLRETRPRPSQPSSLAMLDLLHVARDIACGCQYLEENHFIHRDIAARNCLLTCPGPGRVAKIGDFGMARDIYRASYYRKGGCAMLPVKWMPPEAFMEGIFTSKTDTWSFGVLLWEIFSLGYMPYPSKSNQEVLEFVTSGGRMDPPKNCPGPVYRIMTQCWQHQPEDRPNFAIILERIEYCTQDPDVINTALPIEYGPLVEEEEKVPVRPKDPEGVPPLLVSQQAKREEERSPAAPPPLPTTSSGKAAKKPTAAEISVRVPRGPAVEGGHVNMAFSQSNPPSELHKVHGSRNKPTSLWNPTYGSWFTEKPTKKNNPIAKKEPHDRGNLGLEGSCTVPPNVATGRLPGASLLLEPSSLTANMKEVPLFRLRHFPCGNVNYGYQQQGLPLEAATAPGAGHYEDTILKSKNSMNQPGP

residual activity at 1 µM, Mean [1]: 79 % of control | residual activity at 1 µM, Mean [2]: 111 % of control | residual activity at 1 µM, Mean [3]: 98 % of control | residual activity at 1 µM, Mean [4]: 95 % of control | residual activity at 1 µM, Mean [5]: 63 % of control | residual activity at 1 µM, Mean [6]: 110 % of control | residual activity at 1 µM, Mean [7]: 87 % of control | residual activity at 1 µM, Mean [8]: 72 % of control | residual activity at 1 µM, Mean [9]: 87 % of control | residual activity at 1 µM, Mean [10]: 96 % of control | residual activity at 1 µM, Mean [11]: 107 % of control | residual activity at 1 µM, Mean [12]: 97 % of control | residual activity at 1 µM, Mean [13]: 96 % of control | residual activity at 1 µM, Mean [14]: 92 % of control | residual activity at 1 µM, Mean [15]: 91 % of control | residual activity at 1 µM, Mean [16]: 113 % of control | residual activity at 1 µM, Mean [17]: 101 % of control | residual activity at 1 µM, Mean [18]: 84 % of control | residual activity at 1 µM, Mean [19]: 93 % of control | residual activity at 1 µM, Mean [20]: 84 % of control | residual activity at 1 µM, Mean [21]: 98 % of control | residual activity at 1 µM, Mean [22]: 83 % of control | residual activity at 1 µM, Mean [23]: 94 % of control | residual activity at 1 µM, Mean [24]: 98 % of control | residual activity at 1 µM, Mean [25]: 86 % of control | residual activity at 1 µM, Mean [26]: 108 % of control | residual activity at 1 µM, Mean [27]: 85 % of control | residual activity at 1 µM, Mean [28]: 18 % of control | residual activity at 1 µM, Mean [29]: 92 % of control | residual activity at 1 µM, Mean [32]: 99 % of control | residual activity at 1 µM, Mean [33]: 102 % of control | residual activity at 1 µM, Mean [34]: 100 % of control | residual activity at 1 µM, Mean [35]: 99 % of control | residual activity at 1 µM, Mean [36]: 106 % of control | residual activity at 1 µM, Mean [37]: 97 % of control | residual activity at 1 µM, Mean [38]: 100 % of control | residual activity at 1 µM, Mean [39]: 93 % of control
Structure (SMILES): COc1ccc2c3ccnc(Cl)c3n(CC#N)c2c1 [AnnH75]
cytotoxicity [30]: minimal cytotoxicity | viability at 3 days, 1 µM ([31]; PC12, 1 μM): 94% | viability at 3 days, 3 µM ([31]; PC12, 3 μM): 100% | viability at 3 days, 10 µM ([31]; PC12, 10 μM): 95%

Reference: article PMC4508061, “Selectivity Profiling and Biological Activity of Novel β-Carbolines as Potent and Selective DYRK1 Kinase Inhibitors” (PLoS ONE, 2015)
